The structures appear in SMILES notation. A value given as a limit tells only on which side of the number the result lay.

Here are results for seven molecules from patent US11326165B1, “Methods and compositions for modulating splicing” (SKYHAWK THERAPEUTICS, INC., priority 2017, dated 2022).

The subject of one assay is A673 cells. Briefly: Cell viability and proliferation, A673 cells (crystal violet). Format: cell-based. Particulars: cell proliferation IC50 in NHDF cells over A673 cells, 72 h. As to the method:
Small molecule splicing modulators were tested in a dose-response assay using A673 cells and NHDF cells.
A673 cells or NHDF cells were first plated in 96-well plastic tissue culture plates (10,000 cells per well). The cells were treated with vehicle alone (DMSO), or increasing concentrations of SMSM compounds for 72 h. Following treatment, cell proliferation was determined using a crystal violet assay. The relative cell proliferation at each concentration was determined.

A further assay relates to A375 xenografts. Briefly: A375 xenografts in nude mice, tumor growth inhibition. Type of assay: in vivo. As to the method:
(§1) Studies were performed to assess the effects of in vivo SMSM treatment on glioblastoma, breast, pancreatic, prostate, melanoma, lymphoma and Ewing sarcoma tumors. Studies were also performed to assess the effects of in vivo SMSM treatment on mRNA levels. Immunocompromised nude mice with pre-existing glioblastoma, breast, pancreatic, prostate, melanoma, lymphoma and Ewing sarcoma xenografts were treated with vehicle or SMSMs. Tumor tissues from subcutaneous xenografts were broken into a powder using a BioPulverizer (Biospec Products, Inc.). After SMSM treatment, mRNA was isolated from the xenografts and was analyzed by qRT-PCR.
(§2) Tumor size was measured 2 times per week in two dimensions using a caliper. Studies were terminated when the tumor size in the vehicle treated group reached 2,000 mm^3. Each mouse was bled at 2 hrs after the last dose and at least 50 μl of plasma was collected from each mouse. All of the collected plasma samples and retainer dosing solutions for each dose level were used for bioanalytical measurements. All tumors were also collected and weighed. One necrosis-free tumor fragment of approximately 50 mg was taken from each tumor and flash-frozen for RNA isolation. The remaining tumor was flash frozen for PK analysis.
The effects of in vivo SMSM treatments on pre-existing subcutaneous glioblastoma, breast, pancreatic, prostate, melanoma, lymphoma and Ewing sarcoma xenografts were assessed. For these in vivo experiments, 1×10^6Raji, A375, A673, MDA-MB-231, BxPC-3, PC-3 or U87 (cells re-suspended in 100 μl PBS were subcutaneously injected into the flanks of nude mice. When the tumor reached approximately 100 mm^3 (volume=(¾)(π)(length/2)(width/2)^2), the treatments indicated in the tables below were initiated.

A further assay concerns A673 xenografts. Briefly: A673 xenografts in nude mice, tumor growth inhibition. Particulars: A673 xenograft (FIGS. 16A-C), 1 mg/kg BID. Format: in vivo. As to the method:
Dose range and time course studies comparing anti-neoplastic effects of SMSM−167 and SMSM−151 against vehicle were conducted.
Female NCrNu mice were used. Age range of enrolment was 7-10 weeks. A total of 75 animals were for the studies.
The A673 tumor cell line was maintained in vitro as a monolayer culture. […] The cells growing in an exponential growth phase were harvested and counted for tumor inoculation.
Each mouse were inoculated into a right flank with the single cell suspension of 95% viable tumor cells (5×10^6 cells/mouse) in serum-free RPMI 1640 Media for tumor development. Treatments were administered when mean tumor size reached approximately 75 mm^3.
Before commencement of treatment, all animals were weighed and assigned to treatment groups using a randomization procedure. Mice were randomized into groups based upon their tumor sizes to ensure that each group had approximately the same mean tumor size and range of tumor size.
After inoculation, the animals were checked daily for morbidity and mortality. At the time of routine monitoring, the animals were checked for any effects of tumor growth on normal behavior such as mobility, food and water consumption, body weight gain/loss, eye/hair matting and any other abnormal effects. Deaths and observed clinical signs were recorded.
Body weight were measured prior to tumor inoculation and prior to the treatment administration and then daily. Tumor size were measured 2-3 times per week in two dimensions using a caliper, and the volume were expressed in mm^3 using the formula: V=0.5×a×b^2 where a and b are the long and short diameters of the tumor, respectively.
Studies were terminated when the tumor size in the vehicle treated group reached 2,000 mm^3. Each mouse was bled at 2 hrs after the last dose and at least 50 μl of plasma were collected from each mouse. All of the collected plasma samples and retainer dosing solutions for each dose level were used for bioanalytical measurements. All tumors were also collected and weighed. One necrosis-free tumor fragment of approximately 50 mg was taken from each tumor and flash-frozen for RNA isolation. The remaining tumor was flash frozen for PK analysis.
as §1, §2
The effects of in vivo SMSM treatments on pre-existing subcutaneous glioblastoma, breast, pancreatic, prostate, melanoma, lymphoma and Ewing sarcoma xenografts were assessed. For these in vivo experiments, 1×10^6Raji, A375, A673, MDA-MB-231, BxPC-3, PC-3 or U87 (cells re-suspended in 100 μl PBS were subcutaneously injected into the flanks of nude mice. When the tumor reached approximately 100 mm^3 (volume=(¾)(π)(length/2)(width/2)^2), the treatments indicated in the tables below were initiated. […]

With `O=C(/C=C/c1cccc(S(=O)(=O)Nc2ccccc2)c1)NO` [Belinostat], in the assay with A673 cells, the “Ratio NHDF/A673 IC50” value is on record as at most 10.
With `Nc1ccccc1NC(=O)c1ccc(CNc2nccc(-c3cccnc3)n2)cc1` [Mocetinostat], the “Ratio NHDF/A673 IC50” value in the assay on A673 cells is recorded as at most 10.
Same read-out and setting: to `Cc1[nH]c2ccccc2c1CCNCc1ccc(/C=C/C(=O)NO)cc1` [Panobinostat] belongs at most 10; to `CC(/C=C/C(=O)NO)=C\[C@@H](C)C(=O)c1ccc(N(C)C)cc1` [Trichostatin A], at most 10.
Regarding `CCCS(=O)(=O)Nc1ccc(F)c(C(=O)c2c[nH]c3ncc(-c4ccc(Cl)cc4)cc23)c1F` [Vemurafenib, vemurafenib, reference compound], the “Tumor Growth Inhibition (TGI) (%)” value in the assay with A375 xenografts (A375 xenograft (FIGS. 17A-B), 50 mg/kg p.o. BID, D4) turned out to be 9.47%; in the assay on A375 xenografts (A375 xenograft (FIGS. 17A-B), 50 mg/kg p.o. BID, D6) it was 9.98%; in the assay on A375 xenografts (A375 xenograft (FIGS. 17A-B), 50 mg/kg p.o. BID, D10), 24.32%; in the assay with A375 xenografts (A375 xenograft (FIGS. 17A-B), 50 mg/kg p.o. BID, D13), 50.53%; in the assay on A375 xenografts (A375 xenograft (FIGS. 17A-B), 50 mg/kg p.o. BID, D17), 69.66%; with A375 xenografts (A375 xenograft (FIGS. 17A-B), 50 mg/kg p.o. BID, D21), 82.03%. In addition, the “Tumor Growth Inhibition (TGI) (%)” value in the assay on A375 xenografts (A-375 xenograft (FIGS. 21A-B), 50 mg/kg p.o. BID *21 days, D4) was 111.22%; in the assay on A375 xenografts (A-375 xenograft (FIGS. 21A-B), 50 mg/kg p.o. BID *21 days, D7), 112.77%; with A375 xenografts (A-375 xenograft (FIGS. 21A-B), 50 mg/kg p.o. BID *21 days, D11) it was 114.44%; in the assay with A375 xenografts (A-375 xenograft (FIGS. 21A-B), 50 mg/kg p.o. BID *21 days, D14), 109.55%; in the assay on A375 xenografts (A-375 xenograft (FIGS. 21A-B), 50 mg/kg p.o. BID *21 days, D18), 107.72%; in the assay on A375 xenografts (A-375 xenograft (FIGS. 21A-B), 50 mg/kg p.o. BID *21 days, D21) it was 106.56%.
As for `CN(c1ccc(-c2ccc(-c3cn[nH]c3)cc2O)nn1)[C@@H]1C[C@H]2CCC[C@@H](C1)N2` [compound 160, 2-(6-(((1R,3s,5S)-9-azabicyclo[3.3.1]nonan-3-yl)(methyl)amino)pyridazin-3-yl)-5-(1H-pyrazol-4-yl)phenol], the “Tumor Growth Inhibition (TGI) (%)” value in the assay on A673 xenografts (Day 3) is −0.94%; in the assay on A673 xenografts (Day 6), 25.67%; in the assay with A673 xenografts (Day 10), 25.67%; in the assay with A673 xenografts (Day 13), 42.90%; in the assay on A375 xenografts (A375 xenograft (FIGS. 17A-B), 3 mg/kg ip. BID, D4), 33.09%; in the assay with A375 xenografts (A375 xenograft (FIGS. 17A-B), 3 mg/kg ip. BID, D6) it was 92.99%. The “Tumor Growth Inhibition (TGI) (%)” value in the assay with A375 xenografts (A375 xenograft (FIGS. 17A-B), 3 mg/kg ip. BID, D10) is listed as 109.59%; in the assay with A375 xenografts (A375 xenograft (FIGS. 17A-B), 3 mg/kg ip. BID, D13) it was 105.98%; in the assay with A375 xenografts (A375 xenograft (FIGS. 17A-B), 3 mg/kg ip. BID, D17) it was 99.59%; in the assay on A375 xenografts (A375 xenograft (FIGS. 17A-B), 3 mg/kg ip. BID, D21), 94.68%; with A375 xenografts (A375 xenograft (FIGS. 17A-B), 3 mg/kg ip. QD, D4), 3.40%; in the assay on A375 xenografts (A375 xenograft (FIGS. 17A-B), 3 mg/kg ip. QD, D6), 47.56%. Moreover, the “Tumor Growth Inhibition (TGI) (%)” value was found to be 44.13% with A375 xenografts (A375 xenograft (FIGS. 17A-B), 3 mg/kg ip. QD, D10); 40.08% with A375 xenografts (A375 xenograft (FIGS. 17A-B), 3 mg/kg ip. QD, D13); 45.12% with A375 xenografts (A375 xenograft (FIGS. 17A-B), 3 mg/kg ip. QD, D17); 53.98% in the assay on A375 xenografts (A375 xenograft (FIGS. 17A-B), 3 mg/kg ip. QD, D21); 72.84% with A375 xenografts (A375 xenograft (FIGS. 17A-B), 10 mg/kg ip. QD*5day, D4); 118.42% with A375 xenografts (A375 xenograft (FIGS. 17A-B), 10 mg/kg ip. QD*5day, D6). Further, the “Tumor Growth Inhibition (TGI) (%)” value is listed as 112.78% in the assay on A375 xenografts (A375 xenograft (FIGS. 17A-B), 10 mg/kg ip. QD*5day, D10); 103.12% with A375 xenografts (A375 xenograft (FIGS. 17A-B), 10 mg/kg ip. QD*5day, D13); 97.84% with A375 xenografts (A375 xenograft (FIGS. 17A-B), 10 mg/kg ip. QD*5day, D17); 95.59% in the assay on A375 xenografts (A375 xenograft (FIGS. 17A-B), 10 mg/kg ip. QD*5day, D21); 3.60% with A375 xenografts (A-375 xenograft (FIGS. 21A-B), 1.5 mg/kg i.p. BID *21 days, D4); 18.11% with A375 xenografts (A-375 xenograft (FIGS. 21A-B), 1.5 mg/kg i.p. BID *21 days, D7). Besides, the “Tumor Growth Inhibition (TGI) (%)” value with A375 xenografts (A-375 xenograft (FIGS. 21A-B), 1.5 mg/kg i.p. BID *21 days, D11) came out at 30.05%; in the assay on A375 xenografts (A-375 xenograft (FIGS. 21A-B), 1.5 mg/kg i.p. BID *21 days, D14), 30.28%; with A375 xenografts (A-375 xenograft (FIGS. 21A-B), 1.5 mg/kg i.p. BID *21 days, D18), 42.80%; with A375 xenografts (A-375 xenograft (FIGS. 21A-B), 1.5 mg/kg i.p. BID *21 days, D21) it was 37.88%; in the assay on A375 xenografts (A-375 xenograft (FIGS. 21A-B), 3 mg/kg i.p. BID *21 days, D4), 38.68%; with A375 xenografts (A-375 xenograft (FIGS. 21A-B), 3 mg/kg i.p. BID *21 days, D7) it was 46.64%. In addition, the “Tumor Growth Inhibition (TGI) (%)” value is 94.46% in the assay with A375 xenografts (A-375 xenograft (FIGS. 21A-B), 3 mg/kg i.p. BID *21 days, D11); 89.78% in the assay on A375 xenografts (A-375 xenograft (FIGS. 21A-B), 3 mg/kg i.p. BID *21 days, D14); 81.80% in the assay on A375 xenografts (A-375 xenograft (FIGS. 21A-B), 3 mg/kg i.p. BID *21 days, D18); 71.33% with A375 xenografts (A-375 xenograft (FIGS. 21A-B), 3 mg/kg i.p. BID *21 days, D21). Moreover, in the assay with A673 cells, the “Ratio NHDF/A673 IC50” value is on record as over 225.
As for `CN(c1ccc(-c2ccc(-c3ccn(C)c(=O)c3)cc2O)nn1)[C@H]1C[C@]2(C)CC[C@](C)(C1)N2` [compound 168, 4-(4-(6-(((1R,3s,5S)-1,5-dimethyl-8-azabicyclo[3.2.1]octan-3-yl)(methyl)amino)pyridazin-3-yl)-3-hydroxyphenyl)-1-methylpyridin-2(1H)-one], the “Ratio NHDF/A673 IC50” value in the assay with A673 cells is on record as over 500.
